Data taken from ChEMBL document CHEMBL1201862, “PubChem BioAssay data set” (2004).
Activity calls are given as the source filed them.

Assays:
Genome polyprotein = Genome polyprotein (dengue virus type 2, UniProt P29990); experiment: flavivirus cap methylation enzyme inhibition – biochemical, confirmation dose response, primary screen (AID 588689); assay type: functional
Fatty acid synthase [1] = target: T1, Fatty acid synthase (Homo sapiens, UniProt P49327); experiment: inhibition of human FAS-TE enzyme activity – biochemical, kinetic fluorescence intensity, dose response (AID 624326); assay type: functional;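 also: rate of fluorescence rise from hydrolysis of a fluorogenic O-methyl fluorescein ester substrate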
T1 sequence (P49327 whole entry): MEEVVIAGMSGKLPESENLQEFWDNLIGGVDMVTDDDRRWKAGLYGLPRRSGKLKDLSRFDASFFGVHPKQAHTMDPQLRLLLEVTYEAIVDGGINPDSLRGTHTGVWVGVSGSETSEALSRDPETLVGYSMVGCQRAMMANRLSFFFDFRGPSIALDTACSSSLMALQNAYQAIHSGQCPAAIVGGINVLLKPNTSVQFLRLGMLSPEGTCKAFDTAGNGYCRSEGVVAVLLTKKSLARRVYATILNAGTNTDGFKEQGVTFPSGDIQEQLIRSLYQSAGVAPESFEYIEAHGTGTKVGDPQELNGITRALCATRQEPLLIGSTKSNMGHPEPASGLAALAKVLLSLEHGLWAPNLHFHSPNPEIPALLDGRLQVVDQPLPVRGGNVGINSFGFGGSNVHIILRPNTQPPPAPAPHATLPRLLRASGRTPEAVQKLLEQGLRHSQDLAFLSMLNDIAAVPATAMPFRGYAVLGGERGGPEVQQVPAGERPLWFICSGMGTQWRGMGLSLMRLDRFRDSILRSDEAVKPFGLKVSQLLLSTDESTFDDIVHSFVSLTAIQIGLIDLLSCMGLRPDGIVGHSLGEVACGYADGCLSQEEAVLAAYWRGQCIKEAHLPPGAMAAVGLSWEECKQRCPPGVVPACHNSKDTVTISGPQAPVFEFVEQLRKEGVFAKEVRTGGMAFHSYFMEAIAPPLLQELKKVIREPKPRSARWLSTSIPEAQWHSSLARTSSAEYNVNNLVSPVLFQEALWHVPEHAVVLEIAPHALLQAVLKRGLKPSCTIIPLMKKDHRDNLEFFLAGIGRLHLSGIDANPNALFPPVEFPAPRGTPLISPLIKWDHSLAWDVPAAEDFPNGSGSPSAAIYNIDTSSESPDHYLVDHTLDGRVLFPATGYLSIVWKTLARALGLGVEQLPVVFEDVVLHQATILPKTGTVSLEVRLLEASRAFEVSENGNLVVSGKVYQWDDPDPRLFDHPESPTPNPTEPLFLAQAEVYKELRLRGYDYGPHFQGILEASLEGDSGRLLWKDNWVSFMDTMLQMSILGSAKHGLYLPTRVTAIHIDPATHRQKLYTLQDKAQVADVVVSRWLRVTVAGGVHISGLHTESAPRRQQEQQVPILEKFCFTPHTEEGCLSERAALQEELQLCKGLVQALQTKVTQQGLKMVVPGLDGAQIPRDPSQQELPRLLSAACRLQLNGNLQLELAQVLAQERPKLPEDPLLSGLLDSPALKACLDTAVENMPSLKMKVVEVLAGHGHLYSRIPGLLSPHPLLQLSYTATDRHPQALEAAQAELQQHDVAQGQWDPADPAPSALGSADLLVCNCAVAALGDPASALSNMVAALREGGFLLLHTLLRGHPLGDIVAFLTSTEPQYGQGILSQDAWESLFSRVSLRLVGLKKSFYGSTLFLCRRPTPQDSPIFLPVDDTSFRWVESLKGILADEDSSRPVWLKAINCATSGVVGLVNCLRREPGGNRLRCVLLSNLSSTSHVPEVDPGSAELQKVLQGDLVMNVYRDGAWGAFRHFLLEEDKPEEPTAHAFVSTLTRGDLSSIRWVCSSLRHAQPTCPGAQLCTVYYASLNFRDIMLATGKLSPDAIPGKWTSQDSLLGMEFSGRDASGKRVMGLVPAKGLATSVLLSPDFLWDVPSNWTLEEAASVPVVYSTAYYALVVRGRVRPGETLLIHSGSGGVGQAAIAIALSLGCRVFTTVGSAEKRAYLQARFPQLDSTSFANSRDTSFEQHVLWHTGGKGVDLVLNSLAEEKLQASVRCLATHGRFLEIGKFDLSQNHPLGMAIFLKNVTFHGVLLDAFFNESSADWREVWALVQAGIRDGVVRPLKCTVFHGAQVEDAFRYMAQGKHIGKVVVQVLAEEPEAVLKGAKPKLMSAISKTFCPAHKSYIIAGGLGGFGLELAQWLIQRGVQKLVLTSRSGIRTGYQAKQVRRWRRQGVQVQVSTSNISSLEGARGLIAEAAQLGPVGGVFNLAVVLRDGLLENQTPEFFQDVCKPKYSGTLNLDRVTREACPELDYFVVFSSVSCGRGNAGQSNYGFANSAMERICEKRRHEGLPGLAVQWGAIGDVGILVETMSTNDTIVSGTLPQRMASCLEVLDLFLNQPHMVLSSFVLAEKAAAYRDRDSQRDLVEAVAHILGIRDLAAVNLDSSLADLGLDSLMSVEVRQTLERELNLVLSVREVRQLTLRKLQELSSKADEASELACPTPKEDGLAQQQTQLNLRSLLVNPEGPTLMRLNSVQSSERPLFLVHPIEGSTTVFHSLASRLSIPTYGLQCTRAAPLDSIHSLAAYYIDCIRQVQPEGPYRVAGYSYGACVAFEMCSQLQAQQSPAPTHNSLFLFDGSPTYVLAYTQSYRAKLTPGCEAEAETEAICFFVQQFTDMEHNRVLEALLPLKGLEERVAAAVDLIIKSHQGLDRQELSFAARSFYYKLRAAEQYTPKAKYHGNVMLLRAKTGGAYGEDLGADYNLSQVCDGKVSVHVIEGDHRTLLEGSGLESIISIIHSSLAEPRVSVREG

Fatty acid synthase [2] = target: T1, Fatty acid synthase; experiment: inhibition of human FAS-TE enzyme activity – biochemical, endpoint fluorescence intensity, uHTS hits, dose response (AID 624327); assay type: functional;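 also: fluorescence from hydrolysis of an O-methyl fluorescein acyl ester substrate by the enzyme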
[3] = target: Glucose-6-phosphate 1-dehydrogenase (Homo sapiens, UniProt P11413); experiment: inhibition of Homo sapiens G6PD, dose series – biochemical, fluorescence, selectivity assay for P. falciparum G6PD inhibitor project, dose response (AID 504792); assay type: functional
Sequence of Glucose-6-phosphate 1-dehydrogenase (P11413 whole entry): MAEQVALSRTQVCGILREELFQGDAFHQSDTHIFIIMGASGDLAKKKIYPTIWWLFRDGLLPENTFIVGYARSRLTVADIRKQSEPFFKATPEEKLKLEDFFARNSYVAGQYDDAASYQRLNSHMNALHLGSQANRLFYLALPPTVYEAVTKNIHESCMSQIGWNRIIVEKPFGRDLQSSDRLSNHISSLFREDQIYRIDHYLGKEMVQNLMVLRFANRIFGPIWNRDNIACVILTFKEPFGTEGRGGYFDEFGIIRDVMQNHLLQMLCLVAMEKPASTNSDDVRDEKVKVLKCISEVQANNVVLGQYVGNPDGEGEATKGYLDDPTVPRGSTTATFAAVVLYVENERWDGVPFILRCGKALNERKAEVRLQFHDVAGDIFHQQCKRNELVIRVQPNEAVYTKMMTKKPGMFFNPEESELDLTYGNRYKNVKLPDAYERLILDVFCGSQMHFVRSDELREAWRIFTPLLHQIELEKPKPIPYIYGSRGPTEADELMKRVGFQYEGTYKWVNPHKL

[4] = target: T2, Polyadenylate-binding protein 1 (Homo sapiens, UniProt P11940); experiment: MLLE binding blockers, Cy5 peptide tracer – biochemical, fluorescence polarization, Cy5-PAM2 peptide, secondary, miRNA deadenylation inhibitor project, dose response (AID 602260); assay type: functional; conditions: read-out: IC50_Mean
T2 sequence (P11940 whole entry, the tested form may be a part): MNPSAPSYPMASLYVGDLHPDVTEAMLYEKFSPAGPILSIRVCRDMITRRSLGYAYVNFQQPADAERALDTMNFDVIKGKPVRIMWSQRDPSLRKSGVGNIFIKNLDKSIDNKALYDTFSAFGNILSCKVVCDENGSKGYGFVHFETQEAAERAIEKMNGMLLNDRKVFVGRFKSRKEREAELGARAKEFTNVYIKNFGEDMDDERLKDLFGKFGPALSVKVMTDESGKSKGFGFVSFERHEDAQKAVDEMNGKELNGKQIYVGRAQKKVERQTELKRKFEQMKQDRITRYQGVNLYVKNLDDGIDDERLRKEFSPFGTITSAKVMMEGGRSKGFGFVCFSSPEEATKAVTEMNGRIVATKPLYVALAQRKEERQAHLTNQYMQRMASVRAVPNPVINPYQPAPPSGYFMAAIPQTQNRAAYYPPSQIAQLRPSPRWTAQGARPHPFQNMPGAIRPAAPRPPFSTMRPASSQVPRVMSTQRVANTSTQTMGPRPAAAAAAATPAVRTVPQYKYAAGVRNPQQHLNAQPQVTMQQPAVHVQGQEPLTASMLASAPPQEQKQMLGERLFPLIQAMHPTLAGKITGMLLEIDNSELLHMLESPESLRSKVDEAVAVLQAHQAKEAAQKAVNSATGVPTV

[5] = target: T2, Polyadenylate-binding protein 1; experiment: MLLE domain peptide-binding blockers, IC50 – biochemical, fluorescence polarization, FITC-PAM2 peptide, dose response (AID 602259); assay type: functional; conditions: read-out: IC50_Mean
HEK293 [6] = experiment: EBV LMP1 TES2 canonical NF-kB signalling blockers – cell-based, HEK293, luciferase, cherry-pick, dose response (AID 588343); assay type: functional; conditions: Homo sapiens
BJ [7] = experiment: BJ-TERT-LT-ST fibroblast viability loss – cell-based, RAS-independent, luminescence, dose response (AID 1935); assay type: functional; conditions: Homo sapiens;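 also: BJ fibroblasts immortalized with TERT plus LT and ST oncogenes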
BJ [8] = experiment: BJ-TERT fibroblast viability loss – cell-based, RAS-independent, luminescence, dose response (AID 1933); assay type: functional; conditions: Homo sapiens
[9] = DRD fibroblast viability loss – cell-based, non-viral oncogenic, luminescence, dose response (AID 1934); assay type: functional; conditions: Homo sapiens
BJ [10] = experiment: cells; assay type: functional, cell-based; conditions: Homo sapiens
BJ [11] = experiment: growth inhibition of engineered Ras-driven BJ cells – cell-based, alamar blue fluorescence, cherrypicked samples, dose response (AID 2631); assay type: functional; conditions: Homo sapiens;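 also: confirmatory dose-response assay in RAS-dependent BJ fibroblasts engineered with TERT, LT and ST, with cytotoxicity read by fluorescence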
HEK293 [12] = experiment: inhibition of NOD1-driven NF-kB reporter – cell-based, luminescence, uHTS, primary screen (AID 1578); assay type: functional; conditions: Homo sapiens
HEK293 [13] = experiment: cells; assay type: functional, cell-based; conditions: Homo sapiens
HEK293 [14] = experiment: cells; assay type: functional, cell-based; conditions: Homo sapiens; remark: listed apart in the source
HEK293 [15] = experiment: cells; assay type: functional, cell-based; conditions: Homo sapiens; remark: listed apart in the source
[16] = target: Nucleotide-binding oligomerization domain-containing protein 2 (Homo sapiens, UniProt Q9HC29); experiment: inhibition of NOD2-driven NF-kB reporter – cell-based, luminescence, uHTS, HEK293 (AID 1566); assay type: functional
HEK293 [17] = experiment: NOD2 signaling inhibitors in MDP-stimulated cells, cell-based, uHTS, luminescence (AID 2001); assay type: functional; conditions: Homo sapiens
H4 = experiment: Luminescence Cell-Based Dose Response HTS to Identify Activators of 5'UTR Stem-Loop Driven Prion Protein mRNA Translation in H4 Neuroglioblastoma Cells. [Related pubchem assays: 1829 (Project Summary), 1814 (Primary HTS)]; assay type: functional; conditions: Homo sapiens
[18] = target: T3, High affinity choline transporter 1 (Homo sapiens, UniProt Q9GZV3); experiment: human choline transporter blockers, potency – cell-based, 5-point CRC, membrane potential dye, dose response (AID 504840); assay type: functional
T3 sequence (Q9GZV3 whole entry): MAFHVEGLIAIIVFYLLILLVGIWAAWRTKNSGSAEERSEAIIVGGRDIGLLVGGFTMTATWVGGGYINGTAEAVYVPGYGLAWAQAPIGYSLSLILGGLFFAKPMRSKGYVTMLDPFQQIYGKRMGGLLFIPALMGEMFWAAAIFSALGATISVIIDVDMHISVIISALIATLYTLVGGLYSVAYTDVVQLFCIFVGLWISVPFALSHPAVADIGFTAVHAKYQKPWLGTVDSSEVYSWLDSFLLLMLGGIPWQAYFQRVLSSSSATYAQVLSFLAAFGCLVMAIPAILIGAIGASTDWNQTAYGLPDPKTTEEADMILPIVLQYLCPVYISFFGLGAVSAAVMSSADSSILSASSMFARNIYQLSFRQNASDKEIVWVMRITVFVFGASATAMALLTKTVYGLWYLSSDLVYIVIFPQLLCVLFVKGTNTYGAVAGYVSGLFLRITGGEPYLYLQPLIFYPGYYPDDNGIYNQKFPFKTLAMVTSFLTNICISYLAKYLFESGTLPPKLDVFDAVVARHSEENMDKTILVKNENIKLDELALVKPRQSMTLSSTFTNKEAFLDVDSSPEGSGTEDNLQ

[19] = HEK-293T viability loss after treatment – luminescence, T-cell screen hits, cytotoxicity control for TCR NF-kB inhibitor project, dose response (AID 489026); assay type: functional, cell-based;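 also: cells exposed to compound about 14 hours before the viability readout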
[20] = Vero E6 cell cytotoxicity, dose response, cytotoxicity control for non-replicating M. tuberculosis project, secondary assay (AID 492998); assay type: functional, VeroE6; conditions: Vero C1008
cells = assay type: functional
[21] = target: Heat shock protein HSP 90-alpha (Homo sapiens, UniProt P07900); assay type: functional, organism-based
[22] = THP-1 cell cytotoxicity, dose response, cytotoxicity control for non-replicating M. tuberculosis project (AID 489025); assay type: functional
[23] = blockers of CRF-binding protein–CRF-R2 complex – cell-based, uHTS hits, 384-well, dose response (AID 651639); assay type: functional, Homo sapiens; conditions: read-out: IC50_Mean
[24] = target: T4, Corticotropin-releasing factor receptor 2/Corticotropin-releasing factor-binding protein (Homo sapiens, UniProt P24387+Q13324); experiment: activators of CRF receptor 2 with binding protein – uHTS hits, confirmation (AID 602473); assay type: functional; conditions: read-out: EC50_Mean
T4 sequence (Q13324 whole entry): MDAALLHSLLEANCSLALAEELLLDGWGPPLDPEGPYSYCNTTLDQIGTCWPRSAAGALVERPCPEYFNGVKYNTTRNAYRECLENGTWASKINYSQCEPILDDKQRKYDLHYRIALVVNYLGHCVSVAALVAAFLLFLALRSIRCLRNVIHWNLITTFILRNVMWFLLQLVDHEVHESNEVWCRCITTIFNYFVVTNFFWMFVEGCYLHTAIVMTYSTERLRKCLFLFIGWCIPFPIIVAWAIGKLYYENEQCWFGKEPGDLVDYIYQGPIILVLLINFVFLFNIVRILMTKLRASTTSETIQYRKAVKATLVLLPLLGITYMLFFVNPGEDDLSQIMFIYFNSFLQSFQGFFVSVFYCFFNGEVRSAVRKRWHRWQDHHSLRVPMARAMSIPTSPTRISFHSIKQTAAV
T4 sequence (P24387 whole entry): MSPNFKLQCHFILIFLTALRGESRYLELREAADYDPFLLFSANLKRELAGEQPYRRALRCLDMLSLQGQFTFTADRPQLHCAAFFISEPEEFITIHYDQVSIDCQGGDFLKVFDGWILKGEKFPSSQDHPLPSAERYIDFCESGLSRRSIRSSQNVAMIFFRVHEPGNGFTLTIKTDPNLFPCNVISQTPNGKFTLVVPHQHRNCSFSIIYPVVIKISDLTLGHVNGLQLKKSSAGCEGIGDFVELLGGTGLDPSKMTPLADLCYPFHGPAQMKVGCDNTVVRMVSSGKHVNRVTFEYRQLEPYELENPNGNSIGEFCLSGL

[25] = target: T4, Corticotropin-releasing factor receptor 2/Corticotropin-releasing factor-binding protein; experiment: Dose Response confirmation of uHTS hits for small molecule antagonists of the CRF-binding protein and CRF-R2 receptor complex.; assay type: functional; conditions: read-out: IC50_Mean
[26] = target: T5, Short transient receptor potential channel 4 (Mus musculus, UniProt Q9QUQ5); experiment: block of DAMGO-driven TRPC4 calcium entry – cell-based, HEK293 TRPC4/mu-opioid, Fluo-4 calcium, dose response (AID 434942); assay type: functional;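 also: potency of inhibitors blocking the TRPC4 calcium response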
T5 sequence (Q9QUQ5 whole entry): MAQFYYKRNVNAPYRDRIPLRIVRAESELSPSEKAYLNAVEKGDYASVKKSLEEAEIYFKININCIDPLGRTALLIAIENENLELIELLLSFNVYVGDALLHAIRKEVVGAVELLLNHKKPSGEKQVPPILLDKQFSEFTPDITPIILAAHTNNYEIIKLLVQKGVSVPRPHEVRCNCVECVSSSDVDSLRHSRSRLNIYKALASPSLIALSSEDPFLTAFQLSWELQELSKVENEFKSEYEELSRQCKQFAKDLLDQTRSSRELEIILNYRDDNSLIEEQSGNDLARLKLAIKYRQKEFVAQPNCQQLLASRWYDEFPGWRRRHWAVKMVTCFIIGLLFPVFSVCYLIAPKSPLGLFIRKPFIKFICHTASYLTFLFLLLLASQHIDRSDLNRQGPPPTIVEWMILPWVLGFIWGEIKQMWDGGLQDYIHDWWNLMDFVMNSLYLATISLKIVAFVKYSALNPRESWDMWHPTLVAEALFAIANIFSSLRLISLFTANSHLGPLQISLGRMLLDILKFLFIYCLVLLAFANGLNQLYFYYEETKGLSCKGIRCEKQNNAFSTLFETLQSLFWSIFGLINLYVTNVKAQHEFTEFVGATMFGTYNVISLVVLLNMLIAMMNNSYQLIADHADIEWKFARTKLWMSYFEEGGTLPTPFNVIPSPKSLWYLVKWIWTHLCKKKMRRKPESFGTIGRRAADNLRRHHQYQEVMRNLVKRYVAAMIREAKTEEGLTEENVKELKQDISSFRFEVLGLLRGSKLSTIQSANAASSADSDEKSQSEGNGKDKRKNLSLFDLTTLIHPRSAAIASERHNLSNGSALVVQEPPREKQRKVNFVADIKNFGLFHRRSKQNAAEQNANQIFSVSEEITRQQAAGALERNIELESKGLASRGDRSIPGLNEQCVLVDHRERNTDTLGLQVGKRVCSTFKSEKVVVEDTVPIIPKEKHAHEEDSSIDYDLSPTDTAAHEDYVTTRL

Sequence of Genome polyprotein (P29990 2492-3391 limits assumed): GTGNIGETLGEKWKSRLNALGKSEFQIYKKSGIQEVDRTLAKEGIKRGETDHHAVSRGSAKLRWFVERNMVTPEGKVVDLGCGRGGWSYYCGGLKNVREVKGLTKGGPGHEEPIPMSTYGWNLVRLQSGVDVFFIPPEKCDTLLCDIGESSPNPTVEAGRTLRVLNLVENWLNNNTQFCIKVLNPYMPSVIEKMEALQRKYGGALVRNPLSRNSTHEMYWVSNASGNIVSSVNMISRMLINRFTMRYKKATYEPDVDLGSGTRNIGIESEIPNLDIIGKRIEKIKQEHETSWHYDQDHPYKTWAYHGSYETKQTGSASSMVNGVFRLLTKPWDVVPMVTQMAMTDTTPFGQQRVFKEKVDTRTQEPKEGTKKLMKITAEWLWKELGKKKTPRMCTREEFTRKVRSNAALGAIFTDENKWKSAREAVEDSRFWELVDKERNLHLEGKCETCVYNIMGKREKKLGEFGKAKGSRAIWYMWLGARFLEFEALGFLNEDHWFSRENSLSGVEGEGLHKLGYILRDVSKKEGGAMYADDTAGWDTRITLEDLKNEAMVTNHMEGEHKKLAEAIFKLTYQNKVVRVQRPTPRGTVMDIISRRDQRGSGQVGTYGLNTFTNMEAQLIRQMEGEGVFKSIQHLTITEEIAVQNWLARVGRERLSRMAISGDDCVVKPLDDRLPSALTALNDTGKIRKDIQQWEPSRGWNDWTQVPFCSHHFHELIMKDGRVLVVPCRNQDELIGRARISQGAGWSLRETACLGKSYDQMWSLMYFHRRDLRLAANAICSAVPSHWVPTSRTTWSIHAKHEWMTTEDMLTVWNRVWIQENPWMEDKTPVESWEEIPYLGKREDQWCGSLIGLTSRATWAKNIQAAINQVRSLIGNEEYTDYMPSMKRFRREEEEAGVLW

O=C(O)CCN1C(=O)/C(=C\c2cccc(OCC(=O)Nc3ccc(Cl)cc3)c2)SC1=S
IC50 (Genome polyprotein): 34.9 µM (active)

CCOC(=O)c1sc(N2C(=O)C(O)=C(C(=O)c3ccco3)C2c2ccc([N+](=O)[O-])cc2)nc1C (configuration not stated)
IC50 (Genome polyprotein): 38.1 µM (active)
IC50 (Fatty acid synthase [1]): 7.89 µM (active)
IC50 (Fatty acid synthase [2]): 5.46 µM (active)

O=C(N/N=C/c1cccc([N+](=O)[O-])c1)C(=O)N1CCCCCC1
IC50 [3]: > 80 µM (inactive)

COc1ccc(Nc2cc(Cl)ccc2C(=O)O)cn1
IC50 (Genome polyprotein): 63.5 µM (active)
IC50 [4]: > 66 µM (inactive)
IC50 [5]: 52.2 µM (inactive)

O=C(c1ccc(COc2ccccc2Cl)o1)N1CCCC1
AC50 (HEK293 [6]): 77.8 µM (active)

COc1ccc(NC(=O)CN(C)S(=O)(=O)c2ccc3nc(O)oc3c2)cc1
EC50 (BJ [7]): 47.8 µM (active)
EC50 (BJ [8]): > 150 µM (not active)
EC50 [9]: > 150 µM (not active)
EC50 (BJ [10]): > 150 µM (not active)
EC50 (BJ [11]): > 133 µM (inactive)

O=C(O)/C(=C\c1c(C(=O)O)[nH]c2cc(Cl)cc(Cl)c12)c1ccccc1
IC50 (Genome polyprotein): 75.5 µM (active)

CCS(=O)(=O)c1nnnn1-c1ccccc1S(C)(=O)=O
EC50 (HEK293 [12]): 11.7 µM (active)
IC50 (HEK293 [13]): > 20 µM (inactive)
IC50 (HEK293 [14]): 6.55 µM (active)
IC50 (HEK293 [15]): > 20 µM (inactive)
EC50 [16]: > 20 µM (inactive)
IC50 (HEK293 [17]): 9.2 µM (active)
EC50 (H4): > 120 µM (not active)
AC50 (HEK293 [6]): 11.3 µM (active)

COc1ccc(CCn2c(NN=C3CCCCC3)nc3c2c(=O)[nH]c(=O)n3C)cc1
IC50 [3]: 11.6 µM (active)

CCCCN(CCCC)c1ccc(C(=O)c2ccccc2C(=O)O)c(O)c1
IC50 (Genome polyprotein): 44.1 µM (active)

C=Cn1cc[n+](CC(=O)c2ccc(Br)cc2)c1
IC50 [18]: 15.1 µM (active)

O=C(Nc1nnc(S(=O)(=O)N2CCCC2)s1)c1cccc([N+](=O)[O-])c1
IC50 [3]: 56 µM (inactive)

Cc1ccc2[nH]c3c(c2c1)CCCC3NC(=O)CCl (configuration not stated)
EC50 (BJ [7]): > 150 µM (inconclusive)
IC50 [19]: > 80 µM (inactive)
EC50 (BJ [8]): 13.8 µM (active)
EC50 [9]: 7.41 µM (inconclusive)
EC50 (BJ [10]): 8.7 µM (active)
AC50 (HEK293 [6]): 2.36 µM (active)
EC50 (BJ [11]): 0.565 µM (active)

COc1ccc(Cl)cc1NC(=O)CN(C)S(=O)(=O)c1cccs1
AC50 (HEK293 [6]): 51.2 µM (active)

O=C(Nc1nnc(-c2ccc(F)cc2)o1)c1cc(Cl)sc1Cl
CC50 [20]: 15.3 µM (active)
IC50 [18]: 14.5 µM (active)
IC50 (cells): 0.24 µM (active)
AC50 [21]: 1.99 µM (active)
CC50 [22]: 24.2 µM (active)

COc1ccccc1CN1C(=O)[C@@H]2C(CCC(N)=O)NC3(C(=O)Nc4c3ccc(Cl)c4C)[C@@H]2C1=O (some centres not stated)
IC50 [18]: 16.6 µM (active)

CCC(=O)N(Cc1c(C)nn(-c2ccccc2)c1Cl)c1ccc(Cl)cc1
IC50 [23]: 19.8 µM (active)
EC50 [24]: > 53 µM (inactive)
IC50 [25]: 7.02 µM (active)

Cc1cc([N+](=O)[O-])ccc1NCc1ccco1
IC50 [23]: 7.36 µM (active)
EC50 [24]: > 53 µM (inactive)
EC50 [26]: 5.96 µM (active)
IC50 [25]: 23.1 µM (active)

CCCCc1ccc(NC(=O)CSc2nc(=O)n(CCCN3CCOCC3)c3c2CCC3)cc1
IC50 [18]: 13.8 µM (active)

COC(=O)c1cc(C#N)c(NCc2ccccc2)nc1C
IC50 [23]: > 20 µM (inactive)
EC50 [24]: > 53 µM (inactive)
IC50 [25]: 8.02 µM (active)
